# Activity calls are given as the source filed them.
# Key:
# [1] = target: Glyceraldehyde-3-phosphate dehydrogenase (Homo sapiens, UniProt P04406)
# [2] = Luminescence Cell-Based Dose Confirmation HTS to Identify Inhibitors of Platelet Dense Granule Release. [Related pubchem assays: 1663 (Primary HTS), 1678 (Summary of Project)]; format: functional
# [3] = target: Luciferin 4-monooxygenase (Photinus pyralis, UniProt P08659); experiment: firefly luciferase enzyme inhibitors, dose response, biochemical, luminescence (AID 1891)
# Luciferin 4-monooxygenase, sequence (P08659 whole entry): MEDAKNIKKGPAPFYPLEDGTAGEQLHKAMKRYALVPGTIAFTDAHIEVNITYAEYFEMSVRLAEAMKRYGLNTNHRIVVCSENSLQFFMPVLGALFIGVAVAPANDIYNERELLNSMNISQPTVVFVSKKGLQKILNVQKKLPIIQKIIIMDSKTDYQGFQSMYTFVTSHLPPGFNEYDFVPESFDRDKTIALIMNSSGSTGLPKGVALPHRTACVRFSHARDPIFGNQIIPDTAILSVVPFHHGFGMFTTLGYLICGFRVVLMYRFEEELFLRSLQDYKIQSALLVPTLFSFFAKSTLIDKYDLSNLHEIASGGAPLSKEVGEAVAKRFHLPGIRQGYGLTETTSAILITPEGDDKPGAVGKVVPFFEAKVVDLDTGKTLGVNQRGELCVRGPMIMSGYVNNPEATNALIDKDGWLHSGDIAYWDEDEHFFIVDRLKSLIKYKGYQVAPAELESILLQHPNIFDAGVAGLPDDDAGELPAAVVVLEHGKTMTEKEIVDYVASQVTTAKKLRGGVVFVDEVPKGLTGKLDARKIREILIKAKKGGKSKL
# Large T antigen = Large T antigen (Simian virus 40, UniProt P03070); format: functional, Betapolyomavirus macacae;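 note: Confirmatory-stage PubChem screen for compounds that inhibit SV40 T antigen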
# Large T antigen, sequence (P03070 whole entry): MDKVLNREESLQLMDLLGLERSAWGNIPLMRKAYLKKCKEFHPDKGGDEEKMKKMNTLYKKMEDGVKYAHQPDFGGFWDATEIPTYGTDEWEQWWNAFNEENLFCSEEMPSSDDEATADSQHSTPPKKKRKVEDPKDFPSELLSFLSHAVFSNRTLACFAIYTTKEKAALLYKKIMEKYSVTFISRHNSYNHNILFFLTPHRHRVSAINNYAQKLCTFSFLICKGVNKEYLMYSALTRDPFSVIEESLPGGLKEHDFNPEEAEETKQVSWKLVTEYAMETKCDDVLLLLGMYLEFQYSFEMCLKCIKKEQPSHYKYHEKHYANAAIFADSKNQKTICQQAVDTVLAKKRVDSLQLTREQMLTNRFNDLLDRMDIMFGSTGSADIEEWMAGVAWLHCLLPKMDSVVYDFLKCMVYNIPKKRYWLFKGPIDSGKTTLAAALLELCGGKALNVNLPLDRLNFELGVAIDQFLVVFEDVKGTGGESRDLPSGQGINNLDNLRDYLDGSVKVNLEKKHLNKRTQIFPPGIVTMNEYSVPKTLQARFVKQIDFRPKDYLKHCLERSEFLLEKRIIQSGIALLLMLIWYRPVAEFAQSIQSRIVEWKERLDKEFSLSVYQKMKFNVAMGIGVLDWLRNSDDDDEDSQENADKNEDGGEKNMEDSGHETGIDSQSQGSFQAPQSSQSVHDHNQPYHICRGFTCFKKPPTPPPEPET
# Cytochrome P450 2C9 = Cytochrome P450 2C9 (Homo sapiens, UniProt P11712)
# Cytochrome P450 2C9, sequence (P11712 whole entry): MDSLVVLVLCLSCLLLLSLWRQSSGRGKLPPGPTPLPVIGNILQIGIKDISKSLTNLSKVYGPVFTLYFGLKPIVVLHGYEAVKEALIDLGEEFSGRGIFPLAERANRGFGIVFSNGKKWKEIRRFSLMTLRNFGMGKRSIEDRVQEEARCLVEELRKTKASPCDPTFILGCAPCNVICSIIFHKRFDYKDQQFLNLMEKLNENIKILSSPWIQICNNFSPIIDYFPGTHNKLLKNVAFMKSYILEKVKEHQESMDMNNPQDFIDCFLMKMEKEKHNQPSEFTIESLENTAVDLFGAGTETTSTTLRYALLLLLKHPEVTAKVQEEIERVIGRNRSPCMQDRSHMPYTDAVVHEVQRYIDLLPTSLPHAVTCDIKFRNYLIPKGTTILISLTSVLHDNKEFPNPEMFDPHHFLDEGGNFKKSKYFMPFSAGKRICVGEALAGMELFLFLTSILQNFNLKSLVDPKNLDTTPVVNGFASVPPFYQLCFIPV
# Cytochrome P450 1A2 = target: T1, Cytochrome P450 1A2 (Homo sapiens, UniProt P05177);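 note: PubChem cytochrome P450 panel assay, CYP1A2 panel member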
# T1 sequence (P05177 whole entry): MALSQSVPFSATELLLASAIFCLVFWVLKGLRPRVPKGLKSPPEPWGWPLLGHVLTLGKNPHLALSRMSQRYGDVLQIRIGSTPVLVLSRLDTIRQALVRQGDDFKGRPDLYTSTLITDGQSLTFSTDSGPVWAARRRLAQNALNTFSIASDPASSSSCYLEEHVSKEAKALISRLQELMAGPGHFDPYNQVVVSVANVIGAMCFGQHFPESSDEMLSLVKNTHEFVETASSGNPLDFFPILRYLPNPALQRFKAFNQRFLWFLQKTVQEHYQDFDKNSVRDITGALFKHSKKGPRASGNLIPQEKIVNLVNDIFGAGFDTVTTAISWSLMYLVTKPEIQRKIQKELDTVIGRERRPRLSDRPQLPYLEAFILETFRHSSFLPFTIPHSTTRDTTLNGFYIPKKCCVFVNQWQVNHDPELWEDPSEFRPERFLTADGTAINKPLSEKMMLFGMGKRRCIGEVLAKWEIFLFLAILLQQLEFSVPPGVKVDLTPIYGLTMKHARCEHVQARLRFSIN
# [4] = target: T2, Short transient receptor potential channel 4 (Mus musculus, UniProt Q9QUQ5); experiment: mouse TRPC4 channel activators, dose response, cell-based, HEK293 TRPC4/mu-opioid, Fluo-4 calcium (AID 434937); format: functional
# T2 sequence (Q9QUQ5 whole entry): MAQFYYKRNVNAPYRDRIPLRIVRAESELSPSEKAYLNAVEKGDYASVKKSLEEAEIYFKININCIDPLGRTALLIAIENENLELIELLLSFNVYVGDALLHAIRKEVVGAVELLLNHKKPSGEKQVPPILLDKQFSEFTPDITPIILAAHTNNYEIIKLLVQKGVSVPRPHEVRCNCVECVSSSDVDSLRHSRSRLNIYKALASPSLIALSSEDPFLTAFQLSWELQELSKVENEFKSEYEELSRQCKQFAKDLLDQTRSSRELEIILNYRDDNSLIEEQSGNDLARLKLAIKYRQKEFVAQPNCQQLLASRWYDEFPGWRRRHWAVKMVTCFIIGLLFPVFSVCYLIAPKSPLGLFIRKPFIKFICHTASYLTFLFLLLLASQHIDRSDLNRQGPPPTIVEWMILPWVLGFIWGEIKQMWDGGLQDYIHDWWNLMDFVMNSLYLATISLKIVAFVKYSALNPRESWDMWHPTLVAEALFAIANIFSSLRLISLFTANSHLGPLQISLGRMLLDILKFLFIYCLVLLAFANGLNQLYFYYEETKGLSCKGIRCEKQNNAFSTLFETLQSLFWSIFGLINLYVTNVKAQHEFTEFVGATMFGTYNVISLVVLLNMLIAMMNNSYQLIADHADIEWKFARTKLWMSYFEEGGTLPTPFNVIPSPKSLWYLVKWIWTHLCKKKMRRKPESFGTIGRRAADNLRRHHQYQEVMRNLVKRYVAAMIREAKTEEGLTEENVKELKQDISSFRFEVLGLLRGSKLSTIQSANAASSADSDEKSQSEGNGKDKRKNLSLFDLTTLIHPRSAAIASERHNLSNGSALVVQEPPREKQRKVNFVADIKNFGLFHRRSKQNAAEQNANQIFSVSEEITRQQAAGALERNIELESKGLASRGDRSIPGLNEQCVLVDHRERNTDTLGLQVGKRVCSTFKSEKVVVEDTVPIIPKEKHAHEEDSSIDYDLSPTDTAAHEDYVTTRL
# [5] = inhibitors of SNCA 5'UTR-driven reporter translation, confirmation, H4 neuroglioma cells, luminescence (AID 1988); format: functional, cell-based
# [6] = target: T3, Microphthalmia-associated transcription factor (Homo sapiens, UniProt O75030); experiment: TRPM1 promoter luciferase signal decrease, dose response, MITF inhibitor project, cell-based, SK-MEL-5, cherry-picked, set 3 (AID 493073); format: functional
# T3 sequence (O75030 whole entry): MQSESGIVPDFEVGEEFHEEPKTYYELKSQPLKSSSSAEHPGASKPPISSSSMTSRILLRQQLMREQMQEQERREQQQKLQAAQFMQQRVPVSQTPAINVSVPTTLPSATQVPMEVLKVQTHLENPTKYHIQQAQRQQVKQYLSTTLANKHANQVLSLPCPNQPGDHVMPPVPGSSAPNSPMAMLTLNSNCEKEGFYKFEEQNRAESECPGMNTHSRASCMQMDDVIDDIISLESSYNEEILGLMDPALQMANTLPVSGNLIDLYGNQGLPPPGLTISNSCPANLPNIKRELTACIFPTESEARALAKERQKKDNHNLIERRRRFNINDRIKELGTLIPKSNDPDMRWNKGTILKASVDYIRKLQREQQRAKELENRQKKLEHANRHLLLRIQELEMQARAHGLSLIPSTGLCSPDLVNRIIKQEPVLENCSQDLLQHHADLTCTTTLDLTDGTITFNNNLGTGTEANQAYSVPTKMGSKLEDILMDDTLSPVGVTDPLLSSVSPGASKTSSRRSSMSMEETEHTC
# [7] = Luminescence Cell-Based Dose Response HTS to Identify Inhibitors of 5'UTR Stem-Loop Driven Prion Protein mRNA Translation in H4 Neuroglioblastoma Cells. [Related pubchem assays: 1827 (Project Summary), 1813 (Primary HTS)]; format: functional
# [8] = inhibitors of firefly luciferase expression or activity, dose response, H4 neuroglioma cells, luminescence (AID 1990); format: functional, cell-based
# Cytochrome P450 3A4 = Cytochrome P450 3A4 (Homo sapiens, UniProt P08684);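 note: CYP3A4 tested as one member of a cytochrome P450 panel screen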
# Cytochrome P450 3A4, sequence (P08684 whole entry): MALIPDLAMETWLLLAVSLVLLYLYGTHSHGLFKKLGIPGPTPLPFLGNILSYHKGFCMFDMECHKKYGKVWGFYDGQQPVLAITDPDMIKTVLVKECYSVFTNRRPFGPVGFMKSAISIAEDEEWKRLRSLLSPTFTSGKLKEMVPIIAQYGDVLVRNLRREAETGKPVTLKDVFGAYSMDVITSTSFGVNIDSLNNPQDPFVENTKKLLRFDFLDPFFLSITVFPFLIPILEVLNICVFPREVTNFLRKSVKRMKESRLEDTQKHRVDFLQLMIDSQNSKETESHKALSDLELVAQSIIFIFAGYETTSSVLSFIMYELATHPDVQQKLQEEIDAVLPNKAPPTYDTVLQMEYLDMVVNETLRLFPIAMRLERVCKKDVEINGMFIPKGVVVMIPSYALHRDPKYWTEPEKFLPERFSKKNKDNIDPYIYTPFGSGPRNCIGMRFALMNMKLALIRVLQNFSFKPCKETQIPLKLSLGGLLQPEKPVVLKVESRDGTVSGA
# BJ [9] = experiment: cytotoxicity toward BJ-TERT fibroblasts, dose response, cell-based, RAS-independent, luminescence (AID 1933); format: functional; conditions: Homo sapiens
# [10] = cytotoxicity toward DRD oncogenic fibroblasts, dose response, cell-based, non-viral oncogenic, luminescence (AID 1934); format: functional; conditions: Homo sapiens
# BJ [11] = experiment: cells; format: functional, cell-based; conditions: Homo sapiens
# BJ [12] = experiment: cytotoxicity toward BJ-TERT-LT-ST fibroblasts, dose response, cell-based, RAS-independent, luminescence (AID 1935); format: functional; conditions: Homo sapiens;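 note: BJ fibroblasts immortalized with TERT plus LT and ST oncogenes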
# [13] = growth suppression of beta-catenin-knockout colon cells, dose response, cell-based, HCT116, human colon tumor (AID 1045); format: functional;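 note: HCT116 colon tumor cells with beta catenin knocked out; cells exposed to compound for 60 hours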
# [14] = C. albicans growth with fluconazole, confirmation, fluorescence, retest (AID 2467); format: functional, cell-based
# [15] = NIH-3T3 fibroblast cytotoxicity, dose response, cytotoxicity control, cell-based, fluorescence, Alamar Blue, secondary assay (AID 2327); format: functional;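 note: NIH-3T3 mouse fibroblasts cultured with fluconazole at 8 µg/mL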
# INS1 = experiment: beta cell apoptosis inhibitors, cytokine rescue, dose response, luminescence, retest (AID 449756); format: functional, cell-based; conditions: Rattus norvegicus;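 note: cell death triggered by IL-1 beta plus TNF-alpha plus IFN-gamma mixture; protective hits raise ATP signal compared with cytokine alone wells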
# [16] = growth suppression of PTEN-null colon cells, dose response, cell-based, HCT116 PTEN knockout (AID 1047); format: functional;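 note: HCT116 colon tumor cells with PTEN knocked out; cells exposed to compound for 60 hours before readout; potency for loss of cell viability measured by luminescence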
# [17] = intracellular Trypanosoma cruzi inhibitors in host cells – cell-based, plate reader, cherry-pick samples, set 3, dose response (AID 651818); format: functional;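 note: compounds incubated with infected cells for about four days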
# Paired box protein Pax-8 = Paired box protein Pax-8 (Homo sapiens, UniProt Q06710); experiment: inhibitors of PAX8-driven TPO luciferase reporter, dose response, RMG-I cells, cherry-pick (AID 687027); format: functional, cell-based;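 note: luciferase reporter driven by Pax8 target thyroperoxidase promoter measured by SteadyGlo luminescence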
# Paired box protein Pax-8, sequence (Q06710 whole entry): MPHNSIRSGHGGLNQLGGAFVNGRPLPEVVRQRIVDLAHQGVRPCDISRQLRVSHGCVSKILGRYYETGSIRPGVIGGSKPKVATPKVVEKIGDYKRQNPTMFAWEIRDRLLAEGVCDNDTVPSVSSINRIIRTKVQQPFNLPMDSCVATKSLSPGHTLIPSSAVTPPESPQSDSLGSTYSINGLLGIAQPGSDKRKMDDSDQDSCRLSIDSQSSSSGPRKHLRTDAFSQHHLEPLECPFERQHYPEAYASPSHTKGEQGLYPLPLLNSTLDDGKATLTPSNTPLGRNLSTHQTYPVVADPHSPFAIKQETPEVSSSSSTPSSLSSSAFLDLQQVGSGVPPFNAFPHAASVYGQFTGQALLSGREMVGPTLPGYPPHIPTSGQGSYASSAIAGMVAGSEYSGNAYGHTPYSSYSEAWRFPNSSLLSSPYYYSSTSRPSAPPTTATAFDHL
# [18] = P. falciparum Dd2 growth inhibitors, dose response, SYBR Green, cherry-picked samples (AID 1159567); format: functional, cell-based
# [19] = target: T4, Rac GTPase-activating protein 1 (Homo sapiens, UniProt Q9H0H5); experiment: MgcRacGAP GTPase-activating activity inhibitors, confirmation, biochemical, ADP Hunter fluorescence, primary and confirmatory (AID 624330); format: functional
# T4 sequence (Q9H0H5 whole entry): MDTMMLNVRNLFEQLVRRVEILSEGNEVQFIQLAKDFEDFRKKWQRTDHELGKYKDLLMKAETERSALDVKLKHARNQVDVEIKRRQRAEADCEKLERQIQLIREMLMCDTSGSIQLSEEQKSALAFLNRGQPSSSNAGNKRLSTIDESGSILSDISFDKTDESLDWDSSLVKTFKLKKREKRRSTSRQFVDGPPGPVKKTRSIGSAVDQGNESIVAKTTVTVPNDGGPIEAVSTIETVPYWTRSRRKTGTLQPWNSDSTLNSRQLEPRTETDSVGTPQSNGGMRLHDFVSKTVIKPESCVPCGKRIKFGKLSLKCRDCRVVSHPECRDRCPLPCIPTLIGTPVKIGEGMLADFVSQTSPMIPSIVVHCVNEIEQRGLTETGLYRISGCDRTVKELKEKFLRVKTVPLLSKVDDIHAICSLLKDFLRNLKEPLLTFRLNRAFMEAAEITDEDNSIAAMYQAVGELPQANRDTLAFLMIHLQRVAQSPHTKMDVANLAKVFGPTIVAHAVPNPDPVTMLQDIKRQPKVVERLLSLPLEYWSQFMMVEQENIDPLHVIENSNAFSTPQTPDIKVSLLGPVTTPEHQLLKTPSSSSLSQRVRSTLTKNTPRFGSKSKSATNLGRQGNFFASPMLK
# Glyceraldehyde-3-phosphate dehydrogenase, sequence (P04406 whole entry): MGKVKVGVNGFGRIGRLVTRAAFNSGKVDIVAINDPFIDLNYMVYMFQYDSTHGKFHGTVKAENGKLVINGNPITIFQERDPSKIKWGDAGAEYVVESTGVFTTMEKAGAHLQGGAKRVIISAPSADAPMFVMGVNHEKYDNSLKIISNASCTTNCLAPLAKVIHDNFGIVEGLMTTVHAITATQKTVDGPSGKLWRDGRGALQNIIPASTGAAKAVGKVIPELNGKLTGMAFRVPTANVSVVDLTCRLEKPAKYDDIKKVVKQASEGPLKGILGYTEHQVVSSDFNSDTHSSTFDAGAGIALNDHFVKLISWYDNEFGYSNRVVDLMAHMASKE
compound,measurement,setting,value
COc1cccc(N2C(=O)C(Cl)=C(N3CCN(Cc4ccc5c(c4)OCO5)CC3)C2=O)c1,IC50,[1],> 50 µM (inconclusive)
O=C(CN(CCN1CCOCC1)C(=O)Cn1nnc(-c2ccc(F)cc2)n1)NC1CCCCC1,EC50,[2],> 112 µM (not active)
same,EC50,[3],> 112 µM (not active)
CN1CCc2c(sc3nc(SCC(=O)N4CCCCC4)n(-c4ccccc4)c(=O)c23)C1,EC50,[2],12.9 µM (active)
same,EC50,[3],> 112 µM (not active)
CN(C)c1ccc(NC(=O)C(=O)C2C(=O)Nc3ccccc32)cc1 (stereo not drawn),IC50,Large T antigen,25.9 µM (active)
COc1cc(OC)c(C2CC(=O)N3CN(c4ccc(C)cc4)CSC3=C2C#N)cc1OC (stereo not drawn),IC50,Large T antigen,43.4 µM (active)
COc1ccccc1CN1CC[C@@]2(CCCN(C(=O)c3c(C)noc3C)C2)C1,AC50,Cytochrome P450 2C9,inconclusive
Cc1csc(NC(=O)CCNS(=O)(=O)c2ccc3c(c2)c(=O)n(C)c(=O)n3C)n1,AC50,Cytochrome P450 1A2,0.00631 µM (inconclusive)
same,AC50,Cytochrome P450 2C9,inconclusive
Cc1ccc(NC(=O)NCC(c2ccccc2)N(C)C)cc1 (stereo not drawn),EC50,[4],0.004 µM (active)
C=CCSc1nc(C)cc(/C=C\c2ccccc2)c1C#N,AC50,Cytochrome P450 2C9,inconclusive
COc1ccc(OCC(=O)Nc2ccc3c(c2)nc(CN2CCCC2)n3C)cc1,EC50,[2],> 112 µM (not active)
same,EC50,[3],> 112 µM (not active)
O=C(Nc1ccc(S(=O)(=O)N2CCCCCC2)cc1)c1n[nH]cc1[N+](=O)[O-],EC50,[5],8.3 µM (active)
same,AC50,[6],4.02 µM (active)
same,EC50,[7],53.1 µM (active)
same,EC50,[8],6.09 µM (active)
O=C(CCCCCn1nnc2ccccc2c1=O)N[C@H](C(=O)O)c1ccccc1,EC50,[2],> 112 µM (not active)
same,EC50,[3],> 112 µM (not active)
COc1cc(/C=C/C(=O)N2CCN(CC(O)COc3ccccc3)CC2)cc(OC)c1OC.Cl (stereo not drawn),AC50,Cytochrome P450 3A4,10 µM (inconclusive)
same,AC50,Cytochrome P450 2C9,inconclusive
O=C(NCCc1ccccn1)c1ccc(COc2ccccc2)o1,EC50,[4],4.73 µM (active)
O=C(COC(=O)CCC(=O)c1ccc(F)cc1)Nc1cccc(S(=O)(=O)N2CCCC2)c1,EC50,[2],15.5 µM (active)
same,EC50,[3],> 112 µM (not active)
COc1ccc(C(=O)c2ccc(N3CCOCC3)c([N+](=O)[O-])c2)cc1,EC50,BJ [9],> 150 µM (not active)
same,EC50,[10],> 150 µM (not active)
same,EC50,BJ [11],> 150 µM (not active)
same,EC50,BJ [12],> 150 µM (not active)
COc1cc(C(=O)Nc2nc(C)c(Cc3ccc4c(c3)OCO4)s2)cc(OC)c1OC,EC50,BJ [9],2.49 µM (active)
same,EC50,[10],2.04 µM (active)
same,EC50,BJ [11],133 µM (active)
same,EC50,BJ [12],1.68 µM (active)
COc1cccc(C(=O)Oc2c(CN3CCOCC3)cc(Cl)c3cccnc23)c1,EC50,[13],2.48 µM (active)
same,EC50,[14],1.83 µM (active)
same,AC50,[6],9.9 µM (active)
same,EC50,[15],> 75 µM (inactive)
same,AC50,INS1,4.85 µM (active)
same,EC50,[16],3.38 µM (active)
C=CCn1c(CCNC(=O)C(C)(C)C)nc2ccccc21,EC50,[4],3.76 µM (active)
COc1ccc(NC(=O)Nc2ccc3c(c2)CC(=O)N([C@H](C)CO)C[C@@H](C)[C@@H](CN(C)Cc2ccc(C(F)(F)F)cc2)O3)cc1,AC50,[17],3.52 µM (active)
C[C@H]1CN([C@@H](C)CO)C(=O)Cc2cc(NC(=O)Nc3ccc(C(F)(F)F)cc3)ccc2O[C@H]1CN(C)CC1CCCCC1,AC50,[17],3.6 µM (active)
C[C@@H]1CN([C@H](C)CO)C(=O)Cc2cc(NS(=O)(=O)c3ccccc3)ccc2O[C@@H]1CN(C)S(=O)(=O)c1ccc(Cl)cc1,AC50,[17],2.08 µM (active)
same,AC50,Paired box protein Pax-8,35.5 µM (active)
O=C(Nc1cccc(F)c1)N[C@@H]1CC[C@@H](CCNS(=O)(=O)c2cccc(Cl)c2)O[C@@H]1CO,AC50,[18],18.6 µM (active)
same,AC50,Paired box protein Pax-8,42.7 µM (active)
COc1cc(/C=N/N=C(\N)c2nonc2N)ccc1O,IC50,[19],18.9 µM (active)
same,IC50,Large T antigen,12.2 µM (active)
same,EC50,[2],7.47 µM (active)
same,EC50,[3],52.8 µM (active)
COc1ccc2c3c([nH]c2c1)[C@H](CO)N(Cc1cc(F)ccc1F)CC31CCN(C(=O)C2CCC2)CC1,AC50,[18],3.36 µM (active)
C[C@H](CO)N1C[C@H](C)[C@@H](CN(C)C(=O)Nc2ccc(F)cc2)Oc2ccc(NC(=O)Nc3ccc(C(F)(F)F)cc3)cc2CC1=O,AC50,[18],3.77 µM (active)
CC(=O)N1CC2(C1)[C@@H](c1ccc(-c3cccc(F)c3)cc1)[C@@H](CO)N2CC1CCCC1,AC50,[18],6.15 µM (active)
